Measured values taken from US20190255042A1, “APPLICATION OF HEDGEHOG PATHWAY INHIBITOR IN TREATING FIBROSIS DISEASES” (IMPACT THERAPEUTICS, INC, priority 2016, published 2019).

Key:
[1] = system: lung fibrosis model in mice induced by bleomycin; assay: Therapeutic efficacy in lung fibrosis model in mice induced by bleomycin; format: in vivo, C57BL/6 mice; conditions: for Percentage of positive α-SMA (%): lung tissue immunohistochemical staining; for Percentage of positive α-SMA (%) / Inflammatory infiltration area / Total lung tissue area / Percentage of inflammatory area (%): n = 10, Mean ± Sem; for Percentage of inflammatory area (%): #<0.05 vs. BLM model group; for inflammatory infiltration area compared with model group: p<0.05
Method: Experimental Methods: 60 male C57BL/6 mice were randomize into 6 groups: Blank control group (Group 1, n=10), model group (Group 2, BLM, n=10), Compound A 10 mpk group (Group 3, n=10), compound A 20 mpk group (Group 4, n=10), Compound A 20 mpk +BIBF1120 50 mpk (Group 5, n=10), and BIBF1120 50 mpk positive reference group (Group 6, n=10). One week after the mice were acclimated to the environment, 10 mice in the blank control group were given 50 μl of normal saline in the trachea, and other 50 mice were given 50 μl BLM (0.66 mg/kg, 2 ml/kg) in the trachea. After BLM infusion, 50 mice in BLM infusion group were randomly assigned to start treatment on the 5th day, once a day, with a treatment cycle of 20 days. The whole process was 25 days. After the experiment, the lung tissues were fixed in 10% neutral formalin, dehydrated by alcohol gradient, embedded with paraffin, stained by hematoxylin-eosin (H&E) and Masson trichrome staining. And the inflammatory area and degree of fibrosis of the lung tissues in mice were evaluated by APERIO ScanScope. Immunohistochemical staining of lung tissue was performed to quantify α-SMA positive fibroblasts in lung tissue and to calculate the percentage (%) of α-SMA staining in the entire lung stroma.

[2] = system: unilateral pulmonary fibrosis model in SD rats; assay: Prophylactic therapeutic efficacy in unilateral pulmonary fibrosis model in SD rats (bleomycin); format: in vivo; set-up: key to Fibrosis score (Ashcraft): Ashcraft semi-quantitative fibrosis score; Evaluation of injury and inflammatory lesions of left lung: Fibrotic lesion edge / Evaluation of injury and inflammatory lesions of left lung: Fibrosis lesion: scale not given here; conditions: for Evaluation of injury and inflammatory lesions of left lung: Fibrosis lesion / Evaluation of injury and inflammatory lesions of left lung: Fibrotic lesion edge / Fibrosis area (left pulmonary fibrosis) / Fibrosis Score 1-3 (%) / Fibrosis Score 4-8 (%) / Fibrosis score (Ashcraft) / Volume of left lung / Weight of left lung: D15, mean ± sem, n = 8; for Evaluation of injury and inflammatory lesions of left lung: Fibrosis lesion / Evaluation of injury and inflammatory lesions of left lung: Fibrotic lesion edge: HE score; for Fibrosis area (left pulmonary fibrosis): Masson trichrome; for weight of left lung compared with model group: p<0.05
Method: 40 male SD rats were randomized into Model group (Group 1, n=8), positive drug group BIBF1120 60 mg/kg/d group (Group 2, n=8), Compound A 5 mg/kg/d group (Group 3, n=8), compound A 10 mg/kg/d group (Group 4, n=8) and Compound A 20 mg/kg/d (Group 5, n=8). On the modeling day, rats were anesthetized and exposed to trachea. Bleomycin was injected into trachea of each group (dosage: 3 mg/kg, volume: 1.0 ml/kg). Oral administration was performed 2 hours after modeling, once a day. On Day 15, all the animals were killed, the left lung was taken, the weight and volume of the left lung were measured, then fixed by formalin, the bronchioles were stained with HE, Masson trichrome. The bronchioles, final bronchiole and small pulmonary artery injury and inflammation invasion were evaluated by semi-quantitative score, and pulmonary fibrosis was evaluated by Ashcraft semi-quantitative score.

[3] = system: unilateral pulmonary fibrosis model in SD rats; assay: Therapeutic efficacy in unilateral pulmonary fibrosis model in SD rats (bleomycin, dosing from D8); format: in vivo; set-up: Evaluation of injury and inflammatory lesions of left lung: Fibrotic lesion edge / Evaluation of injury and inflammatory lesions of left lung: Fibrosis lesion: scale not given here; conditions: for Expression of Type I collagen (%) / Expression of α-SMA protein (%): left lung immunohistochemistry; for Expression of Type I collagen (%) / Expression of α-SMA protein (%) / Evaluation of injury and inflammatory lesions of left lung: Fibrosis lesion / Evaluation of injury and inflammatory lesions of left lung: Fibrotic lesion edge / Fibrosis area (left pulmonary) / Fibrosis Score 1-3 (%) / Fibrosis Score 4-8 (%) / Fibrosis score (Ashcraft) / Volume of left lung / Weight of left lung: mean ± sem; for Evaluation of injury and inflammatory lesions of left lung: Fibrosis lesion / Evaluation of injury and inflammatory lesions of left lung: Fibrotic lesion edge: HE score; for Fibrosis area (left pulmonary): Masson trichrome
Method: On the modeling day, rats were anesthetized and exposed to trachea. Bleomycin was injected into left trachea of each group (dosage: 3 mg/kg, volume: 1.0 ml/kg). Oral administration was performed on Day 8 after modeling, once a day. On Day 22, according to the KCI animal euthanasia SOP, animals in each group were given an overdose of sodium barbiturate and sacrificed under intraperitoneal anesthesia, the left lung was taken, the weight and volume of the left lung were measured, then fixed by formalin, the bronchioles were stained with HE, Masson trichrome. The bronchioles, final bronchiole and small pulmonary artery injury and inflammation invasion were evaluated by semi-quantitative score, and pulmonary fibrosis was evaluated by Ashcraft semi-quantitative score. Immunohistochemical staining of α-SMA, Type I collagen (Collagen-I) were performed at the same time, a full scan was performed by Hamamatsu NanoZoomer Digital Pathology (S210), the α-SMA positive area was semiquantitatively calculated from the unit area of the whole sheelt in pulmonary fibrosis foci, and the positive staining area of type-I collagent per unit of area was calculated.

[4] = 5 mg/kg/d oral from modeling day
[5] = 10 mg/kg/d oral from modeling day
[6] = 20 mg/kg/d oral from modeling day
[7] = 5 mpk oral D8 to D22 after modeling
[8] = 15 mpk oral D8 to D22 after modeling
[9] = 30 mpk oral D8 to D22 after modeling

CC(C)c1cnc(-c2cc(NC(=O)c3ccc(N4C[C@@H](C)N(C)[C@@H](C)C4)cc3C(F)(F)F)ccc2Cl)[nH]1 [Comp A, N-(3-(5-isopropyl-1H-imidazol-2-yl)-4-chlorophenyl)-2-trifluoromethyl-4-((3S,5R)-3,4,5-trimethylpiperazin-1-yl)benzamide]
Percentage of positive α-SMA (%) ([1]; 10 mpk oral D5 to D25): 0.78 ± 0.11%
Inflammatory infiltration area ([1]; 10 mpk oral D5 to D25): 8.80 ± 2.79 mm^2
Total lung tissue area ([1]; 10 mpk oral D5 to D25): 100.20 ± 3.61 mm^2
Percentage of inflammatory area (%) ([1]; 10 mpk oral D5 to D25): 9.42 ± 3.35^# %
modified pathological Ashcroft score of pulmonary fibrosis injury compared with model group ([1]; 10 mpk, p<0.01): significantly decreased
inflammatory infiltration area compared with model group ([1]; 10 mpk): significantly decreased
Percentage of positive α-SMA (%) ([1]; 20 mpk oral D5 to D25, ##p < 0.01 vs. Model group): 0.64 ± 0.12^## %
Inflammatory infiltration area ([1]; 20 mpk oral D5 to D25): 7.85 ± 2.28 mm^2
Total lung tissue area ([1]; 20 mpk oral D5 to D25): 96.41 ± 3.28 mm^2
Percentage of inflammatory area (%) ([1]; 20 mpk oral D5 to D25): 8.23 ± 2.40^# %
immunohistochemical staining of α-SMA compared with model group ([1]; 20 mpk, p<0.01): significantly decreased
modified pathological Ashcroft score of pulmonary fibrosis injury compared with model group ([1]; 20 mpk, p<0.01): significantly decreased
inflammatory infiltration area compared with model group ([1]; 20 mpk): significantly decreased
Evaluation of injury and inflammatory lesions of left lung: Fibrosis lesion [2, 4]: 7.93 ± 0.16
Evaluation of injury and inflammatory lesions of left lung: Fibrotic lesion edge [2, 4]: 5.93 ± 0.20
Fibrosis area (left pulmonary fibrosis) [2, 4]: 81.64 ± 10.49
Fibrosis Score 1-3 (%) [2, 4]: 62.50 ± 16.69%
Fibrosis Score 4-8 (%) [2, 4]: 37.50 ± 16.69%
Fibrosis score (Ashcraft) [2, 4]: 3.33 ± 0.36
Volume of left lung [2, 4]: 1.38 ± 0.05 cm^3
Weight of left lung [2, 4]: 1.37 ± 0.08 g
Evaluation of injury and inflammatory lesions of left lung: Fibrosis lesion [2, 5]: 6.93 ± 0.21
Evaluation of injury and inflammatory lesions of left lung: Fibrotic lesion edge [2, 5]: 5.45 ± 0.28
Fibrosis area (left pulmonary fibrosis) [2, 5]: 78.84 ± 4.44
Fibrosis Score 1-3 (%) [2, 5]: 68.75 ± 19.59%
Fibrosis Score 4-8 (%) [2, 5]: 31.25 ± 19.59%
Fibrosis score (Ashcraft) [2, 5]: 3.15 ± 0.32
Volume of left lung [2, 5]: 1.29 ± 0.06 cm^3
Weight of left lung [2, 5]: 1.13 ± 0.05 g
Evaluation of injury and inflammatory lesions of left lung: Fibrosis lesion [2, 6]: 7.68 ± 0.31
Evaluation of injury and inflammatory lesions of left lung: Fibrotic lesion edge [2, 6]: 6.00 ± 0.13
Fibrosis area (left pulmonary fibrosis) [2, 6]: 76.37 ± 8.33
Fibrosis Score 1-3 (%) [2, 6]: 71.25 ± 22.95%
Fibrosis Score 4-8 (%) [2, 6]: 28.75 ± 22.95%
Fibrosis score (Ashcraft) [2, 6]: 3.29 ± 0.63
Volume of left lung [2, 6]: 1.21 ± 0.09 cm^3
Weight of left lung [2, 6]: 1.13 ± 0.08 g
injury of terminal bronchioles and pulmonary arterioles compared with model group and Compound A-5 mpk group ([2]; 10 mpk, fibrosis foci, p<0.001): significantly reduced
weight of left lung compared with model group ([2]; 10 mpk): significantly lower
weight of left lung compared with model group ([2]; 20 mpk): significantly lower
degree of pulmonary fibrosis (Ashcraft score) compared with model group ([2]; BIBF1120 60 mg/kg/d, Compound A 5, 10, 20 mg/kg/d, p<0.01): significantly alleviated
average score of fibrosis in the entire fibrosis lesion (ashcraft) ([2]; BIBF1120 60 mg/kg/d, compound A 5, 10, 20 mg/kg/d): about 3 points
percentage of α-SMA protein compared with model group ([3]; 30 mg/kg/d): significantly decreased
percentage of Type-I collagen protein ([3]; 30 mg/kg/d and 15 mg/kg/d, no statistical significance): decreased
dose dependence of α-SMA protein expression ([3]; 5, 15, 30 mg/kg/d): significant dose dependence
Expression of Type I collagen (%) ([3]; 5 mpk oral D8 to D22, n = 5): 18.76 ± 2.54%
Expression of α-SMA protein (%) ([3]; 5 mpk oral D8 to D22, n = 5): 8.06 ± 0.59%
Evaluation of injury and inflammatory lesions of left lung: Fibrosis lesion [3, 7]: 6.75 ± 0.40
Evaluation of injury and inflammatory lesions of left lung: Fibrotic lesion edge [3, 7]: 4.90 ± 0.15
Fibrosis area (left pulmonary) [3, 7]: 70.61 ± 5.23
Fibrosis Score 1-3 (%) [3, 7]: 88.00 ± 5.83%
Fibrosis Score 4-8 (%) [3, 7]: 12.00 ± 5.83%
Fibrosis score (Ashcraft) [3, 7]: 2.44 ± 0.11
Volume of left lung [3, 7]: 1.34 ± 0.14 cm^3
Weight of left lung [3, 7]: 1.60 ± 0.33 g
damage and inflammatory response of terminal bronchioles within fibrosis lesions and pulmonary small artery compared with model group ([3]; 14 consecutive days, BIBF1120 100, Compound A 5, 15, 30, GDC0449 50 mg/kg/d, p<0.001): significantly reduced
Expression of Type I collagen (%) ([3]; 15 mpk oral D8 to D22, n = 7): 16.48 ± 0.93%
Expression of α-SMA protein (%) ([3]; 15 mpk oral D8 to D22, n = 7): 7.30 ± 0.84%
Evaluation of injury and inflammatory lesions of left lung: Fibrosis lesion [3, 8]: 6.89 ± 0.34
Evaluation of injury and inflammatory lesions of left lung: Fibrotic lesion edge [3, 8]: 4.82 ± 0.24
Fibrosis area (left pulmonary) [3, 8]: 71.16 ± 2.81
Fibrosis Score 1-3 (%) [3, 8]: 91.43 ± 1.43%
Fibrosis Score 4-8 (%) [3, 8]: 8.57± 1.43%
Fibrosis score (Ashcraft) [3, 8]: 2.44 ± 0.07
Volume of left lung [3, 8]: 1.41 ± 0.21 cm^3
Weight of left lung [3, 8]: 1.40 ± 0.21 g
Expression of Type I collagen (%) ([3]; 30 mpk oral D8 to D22, n = 7): 16.77 ± 2.03%
Expression of α-SMA protein (%) ([3]; 30 mpk oral D8 to D22, n = 7, **p<0.01 vs. Model group): 4.96 ± 0.26** %
Evaluation of injury and inflammatory lesions of left lung: Fibrosis lesion [3, 9]: 7.03 ± 0.18
Evaluation of injury and inflammatory lesions of left lung: Fibrotic lesion edge [3, 9]: 4.95 ± 0.20
Fibrosis area (left pulmonary) [3, 9]: 71.27 ± 3.21
Fibrosis Score 1-3 (%) [3, 9]: 84.29 ± 4.81%
Fibrosis Score 4-8 (%) [3, 9]: 15.71 ± 4.81%
Fibrosis score (Ashcraft) [3, 9]: 2.47 ± 0.16
Volume of left lung [3, 9]: 1.40 ± 0.09 cm^3
Weight of left lung [3, 9]: 1.44 ± 0.14 g
degree of pulmonary fibrosis (Ashcraft score) compared with model group ([3]; BIBF1120 100, Compound A 5, 15, 30, GDC0449 50 mg/kg/d, p<0.01): significantly better
amount of Type I collagen deposition in the fibrotic lesions compared with model group ([3]; BIBF1120 100 mpk, Compound A 5 mpk, GDC0449 50 mpk): no significant difference
